Data: US20250288645A1, “USE OF GsMTx4 AND GsMTx4 CONJUGATES TO IMPROVE RECOVERY FROM JOINT INJURY” (priority 2023, published 2025)

Tests used:
[1] = system: humeral head chondrocytes; assay: Explanted humeral head impact loading (2 mJ) after incubation with channel agonists; assay type: cell-based, mouse; conditions: 10 μM yoda1 or 5 nM GSK101, 15 minutes, 2 mJ load; for humeral head chondrocyte cell death following impact loading, female mice: relative to control media; for humeral head chondrocyte cell death following impact loading, male mice: relative to controls (DMSO 0.25%)
Description: Ethical approval was obtained from the appropriate institutional committee Humeri were harvested from wild-type 12-22 week old C57Bl/6 male and female mice. Each specimen was placed in calcium imaging buffer with 2 mM calcium chloride and subsequently incubated with 10 μM calcein-AM for 30 minutes at 37° C. To indicate intracellular esterase activity of living cells, each specimen was incubated with 10 μM yoda1, a Piezo1-specific agonist, 5 nM GSK101, a TRPV4-agonist, or control (DMSO 0.25%, n=7-10/group) in calcium imaging buffer for 15 minutes. Specimens were then incubated with 1.5 nM ethidium homodimer-1 for 3 minutes to indicate loss of plasma membrane integrity in dead cells. The specimen was then arranged in a custom 3-D printed holding device such that the chondrocytes within the apex of sphericity of the humeral head were facing the glass well of a dish to be imaged on an inverted confocal microscope. A baseline confocal image with overlay of 100 μm Z-stacks was obtained with 488 and 594 nm wavelengths to image live and dead cells, respectively. The humerus was then transferred to a custom impact loading apparatus. A 2 mJ load was applied to the lateral aspect of the proximal humerus, such that the convex apex of the humeral head cartilage was impacted against the glass microscope dish. A 2 mJ load was chosen based on preliminary work by Kotelsky to define mechanic-vulnerability of distal femur and proximal humerus articular chondrocytes in the custom loading apparatus. The samples were again incubated in ethidium homodimer-1. A post-injury confocal image with overlay of 100 μm Z-stacks was obtained. A custom MATLAB image processing algorithm was developed to quantify cell viability. The confocal images were processed as maximum intensity projections with threshold via Otsu's method. Then, watershed segmentation, distance transform, and centroid approximation algorithms were created and applied to segment and quantify individual cells based on intensity values. This facilitated the cell counting process, allowed quantification of the total cell area, and allowed adjustment of the region of interest between before- and after-impact micrographs.

chondrocytes = assay: Cartilage pre-treated with Yoda1: chondrocyte vulnerability to mechanical injury; assay type: cell-based, murine; conditions: cartilage pre-treated with Yoda1, versus vehicle-treated controls in contralateral limbs

| Compound | humeral head chondrocyte cell death following impact loading, female mice [1] | humeral head chondrocyte cell death following impact loading, male mice [1] | chondrocyte vulnerability to mechanical injury (chondrocytes) |
| --- | --- | --- | --- |
| CC(C)C[C@H](NC(=O)c1cc2ccccc2s1)C(=O)N1CCN(C(=O)[C@H](CO)NS(=O)(=O)c2ccc(Cl)cc2Cl)CC1 [Gsk101] | nor was incubation with Gsk101 chondroprotective | statistically significant decrease in humeral head chondrocyte cell death | – |
| Clc1cccc(Cl)c1CSc1nnc(-c2cnccn2)s1 [Yoda1] | not a significant increase in chondrocyte cell death | statistically significant increase in humeral head chondrocyte cell death | significantly higher chondrocyte vulnerability |
